Source: patent US4351763A, “Pharmacologically active peptides” (Eli Lilly and Company, priority 1981, dated 1982)
Where a SMILES comes first, the peptide text is derived from it. [ ]: non-standard residue; d: D form. Phe(4-F) = N[C@@H](Cc1ccc(F)cc1)C(=O)O; NMeM = CN[C@@H](CCSC)C(=O)O

System: mouse
Experiment: mouse hot plate test (analgesic activity)
Format: in vivo
Details: hot plate 52° C., 15 minutes after administration, latency until jump
Procedure: In this test, a mouse is placed inside an upright acrylic cylinder comprising, as its base, a hot plate surface which is maintained at 52° C. The mouse is given, orally or by subcutaneous injection, a predetermined amount of test compound dissolved or suspended in a suitable carrier, and, 15 minutes after administration of the test compound, the mouse is placed on the hot plate surface. The latency in seconds until the mouse jumps from the hot plate surface is measured. […] This must occur in a dose range which produces no motor incoordination or incapacitation. The following Table records the ED50 results obtained from this test.

| Structure (SMILES) | Analgesic Activity, Hot Plate Test ED50, mg./kg., subcutaneous [mg/kg] |
| --- | --- |
| C[C@@H](NC(=O)[C@@H](N)Cc1ccc(O)cc1)C(=O)NCC(=O)N[C@@H](Cc1ccc(F)cc1)C(=O)N[C@H](C(N)=O)c1ccccc1 [Example 3 L-Pgl, L-Tyrosyl-D-alanyl-glycyl-L-p-fluorophenylalanyl-L-phenylglycinamide] | 0.063 |
| CSCC[C@@H](C(N)=O)N(C)C(=O)[C@H](Cc1ccc(F)cc1)NC(=O)CNC(=O)[C@@H](C)NC(=O)[C@@H](N)Cc1ccc(O)cc1 [Example 1, L-Tyrosyl-D-alanylglycyl-L-p-fluorophenylalanyl-L-(N^α -methyl)methioninamide] | 0.023 |
| COc1ccc([C@H](NC(=O)[C@H](Cc2ccc(F)cc2)NC(=O)CNC(=O)[C@@H](C)NC(=O)[C@@H](N)Cc2ccc(O)cc2)C(N)=O)cc1 [Example 2, L-Tyrosyl-D-alanylglycyl-L-p-fluorophenylalanyl-L-p-methoxyphenylglycinamide] | 1.04 |
| C[C@@H](NC(=O)[C@@H](N)Cc1ccc(O)cc1)C(=O)NCC(=O)N[C@@H](Cc1ccc(F)cc1)C(=O)N[C@@H](C(N)=O)c1ccccc1 [Example 3 D-Pgl, L-Tyrosyl-D-alanyl-glycyl-L-p-fluorophenylalanyl-D-phenylglycinamide] | 0.103 |
| CSCC[C@@H](C(N)=O)N(C)C(=O)[C@H](Cc1ccc(F)cc1)NC(=O)CNC(=O)[C@H](NC(=O)[C@@H](N)Cc1ccc(O)cc1)[C@H](C)O [Example 4, L-Tyrosyl-D-threonylglycyl-L-p-fluorophenylalanyl-L-(N^α -methyl)methioninamide] (H-Y[dT]G[Phe(4-F)][NMeM]-NH2) | 0.088 |
